This passage reports activity and IC50 results from patent publication US20260297081A1, “COMPOUNDS AND METHODS OF TREATING CANCERS” (Cullgen Inc., priority 2023, published 2026).

Holding throughout (assay type): cell-based
The target in one experiment is CDK4 (Homo sapiens, UniProt P11802+Q16531). In words: HiBiT detection of HiBiT-tagged CDK4 protein level in MCF7 cells, 16 hours (Table 8). Further details: expressed in transfected cells; host or cells: MCF7. The note with it: MCF7 cells stably expressing HiBiT tagged target proteins; for activity at 0.01 µM: 10 nM, read-out: % CDK4 Relative Level (10 nM); for activity at 0.1 µM: 100 nM, read-out: % CDK4 Relative Level (100 nM). As for the experimental part: HiBiT detection system quantitatively measures total amounts of HiBiT-tagged proteins using a luminescent based method. MCF7 cells stably expressing HiBiT tagged target proteins were treated with heterobifunctional compounds at indicated concentrations for 16 hours, then lysed with Nano-Glo HiBiT Lytic detection reagents.

The subject of another experiment is MCF7 cells. In words: Anti-proliferation (viability) of MCF7 cells (Table 7, FIG. 2B). The conditions noted are these: Homo sapiens, MCF7, MCF7 cells, 3-6 days, 10-point serial dilution; read-out: GI IC50 in MCF-7.
The next experiment concerns Calu-1 cells. In words: Anti-proliferation (viability) of NSCLC Calu-1 cells, 3 days (Table 7, FIG. 2B). The note with it: Homo sapiens, 72 h; Calu-1 cells, 3 days, 10-point serial dilution; read-out: GI IC50 in Calu-1. In a few lines: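 Treatment length differs by line: Calu-1 cells receive degrader for 3 days, T47D cells for 6 days, each over a 10-point dilution series. A warhead-modified analogue with unchanged DDB1 binder and linker served as the non-CDK4-binding control.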

Chain of CDK4 (P11802 whole entry): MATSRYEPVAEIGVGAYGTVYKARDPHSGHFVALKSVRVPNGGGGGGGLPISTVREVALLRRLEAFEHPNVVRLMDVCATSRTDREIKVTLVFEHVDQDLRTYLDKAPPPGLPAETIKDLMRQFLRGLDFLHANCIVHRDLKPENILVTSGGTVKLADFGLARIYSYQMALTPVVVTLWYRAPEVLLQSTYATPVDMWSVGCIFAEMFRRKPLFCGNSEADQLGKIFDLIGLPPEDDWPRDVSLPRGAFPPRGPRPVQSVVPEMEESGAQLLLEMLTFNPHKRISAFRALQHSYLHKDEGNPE
Chain of CDK4 (P24385 whole entry partner): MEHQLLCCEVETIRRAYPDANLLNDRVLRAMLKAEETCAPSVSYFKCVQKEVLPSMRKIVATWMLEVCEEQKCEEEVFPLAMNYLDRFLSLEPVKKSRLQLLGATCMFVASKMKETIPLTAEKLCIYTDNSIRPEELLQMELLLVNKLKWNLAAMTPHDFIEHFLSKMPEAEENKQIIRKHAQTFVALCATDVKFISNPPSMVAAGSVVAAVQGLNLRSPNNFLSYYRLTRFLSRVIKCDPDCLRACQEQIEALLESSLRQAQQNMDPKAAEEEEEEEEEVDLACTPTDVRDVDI
Chain of CDK4 (Q16531 2-1140 limits assumed): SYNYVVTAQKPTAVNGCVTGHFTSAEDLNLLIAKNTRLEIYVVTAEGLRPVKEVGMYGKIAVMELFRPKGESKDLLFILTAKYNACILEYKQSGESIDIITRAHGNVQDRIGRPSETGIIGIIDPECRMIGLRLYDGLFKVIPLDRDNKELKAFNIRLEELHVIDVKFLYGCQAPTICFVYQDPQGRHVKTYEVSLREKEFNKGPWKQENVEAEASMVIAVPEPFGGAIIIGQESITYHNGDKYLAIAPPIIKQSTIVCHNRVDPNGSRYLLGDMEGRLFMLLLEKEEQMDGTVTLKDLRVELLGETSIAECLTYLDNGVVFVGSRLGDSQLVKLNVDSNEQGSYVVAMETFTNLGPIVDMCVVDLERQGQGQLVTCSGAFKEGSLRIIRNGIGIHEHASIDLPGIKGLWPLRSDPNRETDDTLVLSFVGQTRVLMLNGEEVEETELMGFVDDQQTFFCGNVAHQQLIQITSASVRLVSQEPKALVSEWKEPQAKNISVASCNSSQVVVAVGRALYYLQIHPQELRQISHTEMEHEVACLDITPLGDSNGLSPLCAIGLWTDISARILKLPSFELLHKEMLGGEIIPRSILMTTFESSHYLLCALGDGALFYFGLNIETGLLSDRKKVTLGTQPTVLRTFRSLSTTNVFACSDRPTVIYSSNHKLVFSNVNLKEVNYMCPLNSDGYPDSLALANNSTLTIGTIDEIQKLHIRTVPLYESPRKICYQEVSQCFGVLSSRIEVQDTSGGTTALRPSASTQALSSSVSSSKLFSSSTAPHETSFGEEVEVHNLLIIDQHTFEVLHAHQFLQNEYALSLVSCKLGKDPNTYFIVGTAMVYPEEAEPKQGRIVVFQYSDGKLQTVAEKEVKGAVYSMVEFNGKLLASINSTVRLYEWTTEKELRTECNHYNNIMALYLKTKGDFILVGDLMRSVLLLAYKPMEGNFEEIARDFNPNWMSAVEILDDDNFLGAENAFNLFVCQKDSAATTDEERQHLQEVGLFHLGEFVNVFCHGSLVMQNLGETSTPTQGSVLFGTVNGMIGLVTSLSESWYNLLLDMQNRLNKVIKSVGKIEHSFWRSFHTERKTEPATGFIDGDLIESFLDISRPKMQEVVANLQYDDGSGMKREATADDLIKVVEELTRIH

`CC(=O)c1c(C)c2cnc(Nc3ccc(CN4CCN(CC(=O)N5CCC6(CCC(Nc7nc(NC(C)C)ccc7C(=O)Nc7ccc(N(C)C)nn7)C6)C5)CC4)cn3)nc2n(C2CCCC2)c1=O` (stereo not drawn) [CPD-487, 2-((2-(2-(4-((6-((6-acetyl-8-cyclopentyl-5-methyl-7-oxo-7,8-dihydropyrido[2,3-d]pyrimidin-2-yl)amino)pyridin-3-yl)methyl)piperazin-1-yl)acetyl)-2-azaspiro[4.4]nonan-7-yl)amino)-N-(6-(dimethylamino)pyridazin-3-yl)-6-(isopropylamino)nicotinamide]: on CDK4, the activity at 0.01 µM was in the range of 55 to 85% and the activity at 0.1 µM was in the range of 55 to 85%. The IC50 in the experiment with MCF7 cells was less than 50 nM. Further, in the experiment on Calu-1 cells, the IC50 is no more than 10 nM.

With `CC(=O)c1c(C)c2cnc(Nc3ccc(N4CCN(CCNC(=O)C56CC(Nc7nc(NC(C)C)ccc7C(=O)Nc7ccc(N(C)C)nn7)(C5)C6)CC4)cn3)nc2n(C2CCCC2)c1=O` [CPD-506, 2-((3-((2-(4-(6-((6-acetyl-8-cyclopentyl-5-methyl-7-oxo-7,8-dihydropyrido[2,3-d]pyrimidin-2-yl)amino)pyridin-3-yl)piperazin-1-yl)ethyl)carbamoyl)bicyclo[1.1.1]pentan-1-yl)amino)-N-(6-(dimethylamino)pyridazin-3-yl)-6-(isopropylamino)nicotinamide], at CDK4, the activity at 0.01 µM is greater than 85% and the activity at 0.1 µM is greater than 85%. Besides, in the experiment on MCF7 cells, the IC50 is less than 50 nM. Also, in the experiment on Calu-1 cells, the IC50 is no more than 10 nM.

As to `CC(=O)c1c(C)c2cnc(Nc3ccc(N4CCN(C5CCN(C(=O)CC67CC(Nc8nc(NC(C)C)ccc8C(=O)Nc8ccc(N(C)C)nn8)(C6)C7)C5)CC4)cn3)nc2n(C2CCCC2)c1=O` (stereo not drawn) [CPD-537, 2-((3-(2-(3-(4-(6-((6-acetyl-8-cyclopentyl-5-methyl-7-oxo-7,8-dihydropyrido[2,3-d]pyrimidin-2-yl)amino)pyridin-3-yl)piperazin-1-yl)pyrrolidin-1-yl)-2-oxoethyl)bicyclo[1.1.1]pentan-1-yl)amino)-N-(6-(dimethylamino)pyridazin-3-yl)-6-(isopropylamino)nicotinamide], on CDK4, the activity at 0.01 µM was greater than 85% and the activity at 0.1 µM is greater than 85%. The IC50 in the experiment on MCF7 cells is less than 50 nM. The IC50 in the experiment with Calu-1 cells is no more than 10 nM.

For the compound `CC(=O)c1c(C)c2cnc(Nc3ccc(N4CCN(C5CCN(C(=O)N6CCC(Nc7nc(NC(C)C)ccc7C(=O)Nc7ccc(N(C)C)nn7)CC6)C5)CC4)cn3)nc2n(C2CCCC2)c1=O` (stereo not drawn) [CPD-469, 2-((1-(3-(4-(6-((6-acetyl-8-cyclopentyl-5-methyl-7-oxo-7,8-dihydropyrido[2,3-d]pyrimidin-2-yl)amino)pyridin-3-yl)piperazin-1-yl)pyrrolidine-1-carbonyl)piperidin-4-yl)amino)-N-(6-(dimethylamino)pyridazin-3-yl)-6-(isopropylamino)nicotinamide], on CDK4, the activity at 0.01 µM was no more than 55% and the activity at 0.1 µM was no more than 55%. In addition, the IC50 in the experiment on MCF7 cells is less than 50 nM. For the same compound, the IC50 in the experiment on Calu-1 cells was no more than 10 nM.

For `[2H]C([2H])([2H])Nc1ccc(C(=O)Nc2ccc(N(C)C)nn2)c(NC2CC3(C2)CN(C(=O)C(C)N2CCN(Cc4ccc(Nc5ncc6c(C)c(C(C)=O)c(=O)n(C7CCCC7)c6n5)nc4)CC2)C3)n1` (stereo not drawn) [CPD-456, 2-((2-(2-(4-((6-((6-acetyl-8-cyclopentyl-5-methyl-7-oxo-7,8-dihydropyrido[2,3-d]pyrimidin-2-yl)amino)pyridin-3-yl)methyl)piperazin-1-yl)propanoyl)-2-azaspiro[3.3]heptan-6-yl)amino)-N-(6-(dimethylamino)pyridazin-3-yl)-6-((methyl-d3)amino)nicotinamide], on CDK4, the activity at 0.01 µM fell in the range of 55 to 85%. The activity at 0.1 µM on CDK4 lay in the range of 55 to 85%. The results for the IC50 in the experiment with MCF7 cells and with Calu-1 cells were less than 50 nM and no more than 10 nM, respectively.

Take `CC(=O)c1c(C)c2cnc(Nc3ccc(N4CCN(C5CCN(C(=O)[C@H]6CC[C@H](Nc7nc(NC(C)C)ccc7C(=O)Nc7cc(C)n(C)n7)CC6)C5)CC4)cn3)nc2n(C2CCCC2)c1=O` (stereo partly drawn) [CPD-478, 2-((4-(3-(4-(6-((6-acetyl-8-cyclopentyl-5-methyl-7-oxo-7,8-dihydropyrido[2,3-d]pyrimidin-2-yl)amino)pyridin-3-yl)piperazin-1-yl)pyrrolidine-1-carbonyl)cyclohexyl)amino)-N-(1,5-dimethyl-1H-pyrazol-3-yl)-6-(isopropylamino)nicotinamide]: the activity at 0.01 µM at CDK4 is greater than 85%. In addition, at CDK4, the activity at 0.1 µM lay within 55 to 85%. The values for the IC50 in the experiment on MCF7 cells and in the experiment on Calu-1 cells were less than 50 nM and no more than 10 nM, respectively.

For the compound `CC(=O)c1c(C)c2cnc(Nc3ccc(N4CCN(CC(=O)N(C)CC56CC(Nc7nc(NC(C)C)ccc7C(=O)Nc7ccc(N(C)C)nn7)(C5)C6)CC4)cn3)nc2n(C2CCCC2)c1=O` [CPD-525, 2-((3-((2-(4-(6-((6-acetyl-8-cyclopentyl-5-methyl-7-oxo-7,8-dihydropyrido[2,3-d]pyrimidin-2-yl)amino)pyridin-3-yl)piperazin-1-yl)-N-methylacetamido)methyl)bicyclo[1.1.1]pentan-1-yl)amino)-N-(6-(dimethylamino)pyridazin-3-yl)-6-(isopropylamino)nicotinamide], at CDK4, the activity at 0.01 µM was greater than 85% and the activity at 0.1 µM is greater than 85%. The IC50 with MCF7 cells was less than 50 nM. In addition, the IC50 with Calu-1 cells is no more than 10 nM.

As for `CC(=O)c1c(C)c2cnc(Nc3ccc(CN4CCN(CC(=O)NC5CCC(Nc6nc(NC(C)C)ccc6C(=O)Nc6ccc(N(C)C)nn6)C5)CC4)cn3)nc2n(C2CCCC2)c1=O` (stereo not drawn) [CPD-501, 2-((3-(2-(4-((6-((6-acetyl-8-cyclopentyl-5-methyl-7-oxo-7,8-dihydropyrido[2,3-d]pyrimidin-2-yl)amino)pyridin-3-yl)methyl)piperazin-1-yl)acetamido)cyclopentyl)amino)-N-(6-(dimethylamino)pyridazin-3-yl)-6-(isopropylamino)nicotinamide], at CDK4, the activity at 0.01 µM is greater than 85% and the activity at 0.1 µM was greater than 85%. Further, in the experiment on MCF7 cells, the IC50 was less than 50 nM. Besides, the IC50 with Calu-1 cells was no more than 10 nM.

Take `CC(=O)c1c(C)c2cnc(Nc3ccc(N4CCC5(CCN(CC(=O)N6CC7(CC(Nc8nc(NC(C)C)ccc8C(=O)Nc8cc9n(n8)CCC9)C7)C6)C5)C4)cn3)nc2n(C2CCCC2)c1=O` (stereo not drawn) [CPD-529, 2-((2-(2-(7-(6-((6-acetyl-8-cyclopentyl-5-methyl-7-oxo-7,8-dihydropyrido[2,3-d]pyrimidin-2-yl)amino)pyridin-3-yl)-2,7-diazaspiro[4.4]nonan-2-yl)acetyl)-2-azaspiro[3.3]heptan-6-yl)amino)-N-(5,6-dihydro-4H-pyrrolo[1,2-b]pyrazol-2-yl)-6-(isopropylamino)nicotinamide]: at CDK4, the activity at 0.01 µM is greater than 85% and the activity at 0.1 µM was greater than 85%. Further, the IC50 in the experiment with MCF7 cells is less than 50 nM. Moreover, in the experiment with Calu-1 cells, the IC50 was no more than 10 nM.

Take `COc1cccc(NC(=O)c2ccc(NC(C)C)nc2NC2CC3(C2)CN(C(=O)CN2CCC4(CCN(c5ccc(Nc6ncc7c(C)c(C(C)=O)c(=O)n(C8CCCC8)c7n6)nc5)C4)C2)C3)n1` (stereo not drawn) [CPD-532, 2-((2-(2-(7-(6-((6-acetyl-8-cyclopentyl-5-methyl-7-oxo-7,8-dihydropyrido[2,3-d]pyrimidin-2-yl)amino)pyridin-3-yl)-2,7-diazaspiro[4.4]nonan-2-yl)acetyl)-2-azaspiro[3.3]heptan-6-yl)amino)-6-(isopropylamino)-N-(6-methoxypyridin-2-yl)nicotinamide]: the activity at 0.01 µM on CDK4 lay in the range of 55 to 85%. Moreover, the activity at 0.1 µM at CDK4 fell in the range of 55 to 85%. Besides, the IC50 is less than 50 nM in the experiment on MCF7 cells and no more than 10 nM in the experiment on Calu-1 cells.

For the compound `[2H]C([2H])([2H])Nc1ccc(C(=O)Nc2cccc(OC)n2)c(NC2CC3(C2)CN(C(=O)CC(N2CCN(c4ccc(Nc5ncc6c(C)c(C(C)=O)c(=O)n(C7CCCC7)c6n5)nc4)CC2)C(F)(F)F)C3)n1` (stereo not drawn) [CPD-531, 2-((2-(3-(4-(6-((6-acetyl-8-cyclopentyl-5-methyl-7-oxo-7,8-dihydropyrido[2,3-d]pyrimidin-2-yl)amino)pyridin-3-yl)piperazin-1-yl)-4,4,4-trifluorobutanoyl)-2-azaspiro[3.3]heptan-6-yl)amino)-N-(6-methoxypyridin-2-yl)-6-((methyl-d3)amino)nicotinamide], at CDK4, the activity at 0.01 µM was 55 to 85% and the activity at 0.1 µM lay in the range of 55 to 85%. Also, the IC50 in the experiment on MCF7 cells is less than 50 nM. For the same compound, the IC50 in the experiment with Calu-1 cells was no more than 10 nM.

For the compound `CC(=O)c1c(C)c2cnc(Nc3ccc(N4CCC5(CCN(CC(=O)N6CC7(CC(Nc8nc(NC(C)C)ccc8C(=O)Nc8cn9c(n8)CCC9)C7)C6)C5)C4)cn3)nc2n(C2CCCC2)c1=O` (stereo not drawn) [CPD-565, 2-((2-(2-(7-(6-((6-acetyl-8-cyclopentyl-5-methyl-7-oxo-7,8-dihydropyrido[2,3-d]pyrimidin-2-yl)amino)pyridin-3-yl)-2,7-diazaspiro[4.4]nonan-2-yl)acetyl)-2-azaspiro[3.3]heptan-6-yl)amino)-N-(6,7-dihydro-5H-pyrrolo[1,2-a]imidazol-2-yl)-6-(isopropylamino)nicotinamide], the activity at 0.01 µM at CDK4 was greater than 85%. Besides, the activity at 0.1 µM on CDK4 is 55 to 85%. Moreover, the IC50 is less than 50 nM with MCF7 cells and no more than 10 nM with Calu-1 cells.
